Literature values in patent US6605304B1, “Silicate-containing powders providing controlled, sustained gas release” (Bernard Technologies, Inc., priority 1998, dated 2003).

Experiments:
[1] = system: mold spores, bacteria and other microbiological contaminants

[O][Cl+][O-] [chlorine dioxide]
concentration that penetrates and destroys contaminants [1]: below one | chromosomal aberrations or micronuclei in the bone marrow (mice; mice, subchronic and acute oral administration): failed to induce any chromosomal aberrations or increased numbers of micronuclei

OCl [hypochlorite]
mutagenic potential (mice; mouse, in vivo, po): weak positive effect
